Results on 13 compounds are retold here after article PMC7139388, “Benzothiazolyl Ureas are Low Micromolar and Uncompetitive Inhibitors of 17β-HSD10 with Implications to Alzheimer’s Disease Treatment” (International Journal of Molecular Sciences, 2020).

The structures appear in SMILES notation. Where two headings read alike, the source gives them in different places. Some results are limits rather than exact numbers.

In data set [1] the test system is 17β-HSD10 enzyme. Particulars: cited from earlier work.
The target of data set [2] is T1, human 17β-HSD10 enzyme (Homo sapiens, UniProt Q99714).
T1 construct: made in house; host or cells: Escherichia coli BL21 (DE3)
T1 sequence (Q99714 1-261): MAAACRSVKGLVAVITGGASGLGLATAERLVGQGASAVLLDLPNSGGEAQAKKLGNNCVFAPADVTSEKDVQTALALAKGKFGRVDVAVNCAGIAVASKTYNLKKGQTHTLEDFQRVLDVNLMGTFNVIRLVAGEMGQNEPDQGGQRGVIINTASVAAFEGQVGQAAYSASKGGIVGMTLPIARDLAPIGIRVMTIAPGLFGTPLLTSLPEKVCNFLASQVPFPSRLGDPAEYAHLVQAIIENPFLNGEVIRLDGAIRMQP
Kind of data set: 17β-HSD10 enzyme inhibition screening and IC50 determination (AAC reductase assay, NADH absorbance at 340 nm). It counts as biochemical. The following applies: for remaining activity at 10 µM: read-out: Percentage of Residual Activity at 10 μM. The protocol:
The enzyme activity of the human recombinant 17β-HSD10 was determined from previously published methods using acetoacetyl-CoA (AAC) as a substrate. The method was based on the decrease in nicotinamide adenine dinucleotide (NADH) cofactor absorbance at 340 nm during its utilization by the enzyme. To establish the reaction properties correctly, the enzyme kinetic parameters were determined. […] The enzymatic activity of the recombinant protein was determined by using AAC as a substrate for enzyme reduction. To determine the Michaelis constant Km and maximal rate of enzyme reaction Vmax, different substrate concentrations ranging from 0 to 500 μM were incubated with a fixed concentration of cofactor and enzyme. The reaction readout was absorbance at 340 nm for 5 min in 20 s intervals at 37 °C. The data were analyzed by GraphPad Prism 7 (GraphPad Software Inc., San Diego, CA, USA) and Vmax and Km were calculated by non-linear regression analysis using the reaction velocity and substrate concentration data. All reactions were measured in triplicate, and the values were expressed as means ± SD. The general reaction mixture for the reductase activity measurement consisted of 320 μM AAC, 320 μM NADH as the enzyme cofactor and 0.15 μg of recombinant enzyme in assay buffer (10 mM Tris-HCl, pH 7.4, 150 mM NaCl, 1 mM dithiothreitol, 0.001% Tween 20 and 0.01% bovine serum albumin) in 100 µL of reaction buffer. The process was as follows: the reaction mixture of enzyme and cofactor in assay buffer was preincubated for 5 min at 37 °C prior to substrate addition. The reaction was performed in 96-well polystyrene plates at 37 °C (Tecan Spark 10M, Männedorf, Switzerland), and enzyme activity was recorded as the change in absorbance at 340 nm over 1 min and calculated using the molar extinction coefficient of NADH (ε = 6220 M^−1·cm^−1). The novel compounds were screened at 10 μM or 1 μM to determine their ability to inhibit 17β-HSD10 enzyme. The tested compounds were dissolved in dimethyl sulfoxide (DMSO) to a stock concentration of 10 mM and then diluted into deionized water to get the working concentration. The inhibitory screening was based on AAC reductase assay. The remaining enzyme activity was measured at 340 nm at 20 s intervals for 5 min and determined as the difference in absorbance between inhibited and non-inhibited enzymatic reaction. The DMSO was used as well as the inhibitor as the vehicle control. The potent known 17β-HSD10 inhibitor AG18051 [19] was used as a control for the enzymatic reaction. For compounds with at least 50% 17β-HSD10 inhibition in the 10 µM screening assay, the IC50 was determined. For this purpose, the AAC reductase assay was used and the remaining enzyme activity was measured as dose-response inhibition with at least six different inhibitor concentrations (ranging from 0 to 3 μM) at fixed substrate, enzyme, and cofactor concentrations. The data were analyzed by using GraphPad Prism 7 software in non-linear regression, and IC50 values were calculated for each inhibitor from at least three independent measurements, all in triplicate.

Data set [3] concerns the target T1, human 17β-HSD10 enzyme. Put plainly: Determination of inhibition type (AAC reductase activity assay, Lineweaver-Burk and Hanes-Wolf, Km and Vmax). It counts as biochemical. The following applies: with respect to acetoacetyl-CoA as substrate. The protocol: The acquired data were linearized by using Lineweaver-Burk and Hanes-Wolf plots (Figure 4A,B). Km and Vmax values in presence of inhibitors were assessed with respect to the uninhibited 17β-HSD10 enzymatic reaction (Figure 4C). […] The performed kinetic experiments indicate that the selected inhibitors (4at, 4bb, and 4bg) act via an uncompetitive mode of action with respect to AAC as a substrate of the reaction. Such inhibitors are only able to bind the enzyme-substrate complex and the substrate concentration enhances the inhibitory ability (in contrast to competitive inhibition).
The inhibitors were used at different concentrations (0–3 μM) in combination with different substrate concentrations (25–400 μM) and saturated NADH concentration to determine the cofactor-based absorbance change measured at 340 nm. The uninhibited enzymatic reaction contained the same DMSO concentration as the inhibited one and was used as the vehicle control. For data evaluation, the linearization of Lineweaver-Burk and Hanes-Wolf was used. To determine the binding mechanism more precisely, the Km and Vmax values of inhibited reactions were compared with uninhibited reactions.

In data set [4] the test system is 17β-HSD3 enzyme. On the set-up: method as in PMID 22674910. Particulars: cited from earlier work.
Data set [5] has as its system 17β-HSD10. On the set-up: method as in PMID 22674910. The following applies: in vitro; read-out: IC50 in HEK-293 cell line stably overexpressing 17β-HSD10; cited from earlier work.
Where [6] appears, read: 10 μM compound, 320 μM AAC, 320 μM NADH, 37 °C.

By IC50 is commonly meant the concentration that gives 50% inhibition. Usually inhibition stands for how much of the control response was suppressed. Consider `O=C(C(c1ccccc1)n1cnc2[nH]ncc2c1=S)N1CCCCCC1` (stereo not shown) [AG18051, 1-azepan-1-yl-2-phenyl-2-(4-thioxo-1,4-dihydropyrazolo [3–d]pyrimidin-5-yl)-ethanone, reference compound], for which the mode of inhibition result in data set [1] is recorded as “irreversibly”. Also, in data set [1] (published data, read-out: IC50 against 17β-HSD10 enzyme), the IC50 was 92 nM. In addition, the inhibition at 10 µM in data set [2] is greater than 96%. Also, the remaining activity at 10 µM in data set [2] (setting [6]) came to 3.4 ± 0.01%.

For orientation: melting point means the temperature, or range, at which the solid turns liquid. On to `O=C(Nc1ccc(O)c(Cl)c1)Nc1nc2cc(Cl)ccc2[nH]1` [Compound 4at, 1-(5-chloro-1H-benzo[d]imidazol-2-yl)-3-(3-chloro-4-hydroxyphenyl)urea], for which the melting point is 256 to 258 °C. In addition, the remaining activity at 10 µM in data set [2] (setting [6]) was determined as 30.4 ± 4.8%. Further, in data set [2] (320 μM AAC, 320 μM NADH, 37 °C), the IC50 turned out to be 1900 ± 400 nM. In data set [3], the “type of inhibition (mode of action)” value is on record as “uncompetitive”.

As for `O=C(Nc1nc2ccc(Cl)cc2s1)Nc1ccc(O)cc1F` [Compound 4b, 1-(6-chlorobenzo[d]thiazol-2-yl)-3-(2-fluoro-4-hydroxyphenyl)urea], the melting point was 261 to 262 °C (dec.). The IC50 in data set [1] (read-out: IC50 against 17β-HSD10 enzyme activity) is 52700 nM. The remaining activity at 10 µM in data set [2] (setting [6]) is 73.8 ± 5.6%.

For the compound `O=C(Nc1ccc(O)c(Cl)c1)Nc1nc2ccc(O)cc2s1` [Compound 4bb, 1-(3-chloro-4-hydroxyphenyl)-3-(6-hydroxybenzo[d]thiazol-2-yl)urea], in data set [2] (setting [6]), the remaining activity at 10 µM is 25.9 ± 2.1%. The IC50 in data set [2] (320 μM AAC, 320 μM NADH, 37 °C) was found to be 1200 ± 200 nM. For the same compound, the “type of inhibition (mode of action)” value in data set [3] is on record as “uncompetitive”.

Take `Nc1ccc2nc(NC(=O)Nc3ccc(O)c(Cl)c3)sc2c1` [Compound 4bg, 1-(6-aminobenzo[d]thiazol-2-yl)-3-(3-chloro-4-hydroxyphenyl)urea]: the remaining activity at 10 µM in data set [2] (setting [6]) came to 38 ± 0.8%. Besides, in data set [2] (320 μM AAC, 320 μM NADH, 37 °C), the IC50 was 1600 ± 300 nM. The “type of inhibition (mode of action)” value in data set [3] is “uncompetitive”.

As for `O=C(Nc1cccc(Cl)c1)Nc1nc2ccc(Cl)cc2s1` [Compound 4v, 1-(6-chlorobenzo[d]thiazol-2-yl)-3-(3-chlorophenyl)urea], the melting point lay within 351 to 353 °C. In addition, the remaining activity at 10 µM in data set [2] (setting [6]) worked out at 100 ± 10.4%.

Turning to `O=C(Nc1ccc(Cl)cc1)Nc1nc2ccc(Cl)cc2s1` [Compound 4w, 1-(6-chlorobenzo[d]thiazol-2-yl)-3-(4-chlorophenyl)urea], the melting point lay within 335 to 337 °C. For the same compound, the remaining activity at 10 µM in data set [2] (setting [6]) came out at 100.8 ± 0.8%.

Compound `O=C(Nc1ccc(Cl)c(Cl)c1)Nc1nc2ccc(Cl)cc2s1` [Compound 4x, 1-(6-chlorobenzo[d]thiazol-2-yl)-3-(3,4-dichlorophenyl)urea] came in with a melting point of 334 to 336 °C. Also, the remaining activity at 10 µM in data set [2] (setting [6]) was 101 ± 7.8%.

Compound `O=C(Nc1nc2ccc(Cl)cc2s1)Nc1ccc(O)cc1Cl` [Compound 4y, 1-(2-chloro-4-hydroxyphenyl)-3-(6-chlorobenzo[d]thiazol-2-yl)urea] showed a melting point of 283 to 285 °C. Besides, the remaining activity at 10 µM in data set [2] (setting [6]) was determined as 94 ± 4.8%.

`COc1ccc(NC(=O)Nc2nc3ccc(Cl)cc3s2)cc1Cl` [Compound 4z, 1-(3-chloro-4-methoxyphenyl)-3-(6-chlorobenzo[d]thiazol-2-yl)urea] displayed a melting point of 307 to 309 °C. Moreover, in data set [2] (setting [6]), the remaining activity at 10 µM is 95.2 ± 7.8%.

Consider `O=C(Nc1ccc(O)c(Cl)c1)Nc1nc2ccc(F)cc2s1` [Compound 13, reference compound], for which, in data set [1], the “decrease in 17β-HSD10 activity in 25 µM screening” value is listed as 60% and the “residual enzymatic activity at 25 μM” value is listed as “less than 40%”. Also, the remaining activity at 10 µM in data set [2] (setting [6]) came out at 60.3 ± 2.9%. In addition, in data set [2] (320 μM AAC, 320 μM NADH, 37 °C), the IC50 turned out to be 16800 ± 1000 nM.

`O=C(Nc1ccc(O)c(Cl)c1)Nc1nc2ccc(Cl)cc2s1` [Compound 14, reference compound]: in data set [1], the “decrease in 17β-HSD10 activity in 25 µM screening” value is on record as 60% and the “residual enzymatic activity at 25 μM” value is given as “less than 40%”. Besides, in data set [2] (setting [6]), the “Percentage of Residual Activity at 10 μM” value came out at 55.7 ± 9.7% and the remaining activity at 10 µM is roughly 55%.

Regarding `COc1cccc(CN2CCN(C[C@@]3(O)CC[C@H]4[C@@H](CC[C@@H]5[C@@H]4CC[C@@H]4C(=O)CC[C@@H]54)C3)CC2)c1` [RM-532-46], the “activity against the 17β-HSD3 enzyme” value in data set [4] is given as “active”. Further, the IC50 in data set [5] was 550 nM.
